Experimental data as given in US9265253B2, “Use of macrocyclic picolinamides as fungicides” (DOW AGROSCIENCES LLC, priority 2013, dated 2016).
Where two headings read alike, the source gives them in different places.

Assays:
[1] = system: Mycosphaerella graminicola; Anamorph: Septoria tritici; assay: Leaf Blotch of Wheat (SEPTTR) disease control; type: in vivo; settings: Zymoseptoria tritici; for pest or weed control at 100 ppm: rate 100 ppm; for pest or weed control at 121.5 g/ha: rate 121.5 g/H
In short: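 Percent disease control is derived from Septoria tritici leaf blotch severity (0 to 100 percent) on treated versus untreated wheat seedlings. Plants get fungicide spray to run-off, with inoculation either preceding or following application, then humid incubation at 20° C.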

[2] = system: Puccinia triticina; Synonym: Puccinia recondite f. Sp. Tritici; assay: Wheat Brown Rust (PUCCRT) disease control; type: in vivo; settings: Puccinia triticina, topical; for pest or weed control at 100 ppm: rate 100 ppm; for pest or weed control at 121.5 g/ha: rate 121.5 g/H
In short: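 Brown rust on first-leaf Yuma wheat: spore inoculation before or after spray application (acetone/Triton X-100 solution, or EC with Trycol in track spray), overnight 100% RH at 22 °C, disease developed at 24 °C. Severity scored 0–100% and converted to percent control against untreated.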

[3] = 24 h, 1 Day Protectant, read-out: SEPTTR 1 DP disease control
[4] = 72 h, 3 Day Curative, read-out: SEPTTR 3 DC disease control
[5] = 24 h, 1 Day Protectant, read-out: PUCCRT 1 DP disease control
[6] = 72 h, 3 Day Curative, read-out: PUCCRT 3 DC disease control

Row | Structure (SMILES) | melting point [°C] | pest or weed control at 100 ppm [1, 3] [%] | pest or weed control at 100 ppm [1, 4] [%] | pest or weed control at 100 ppm [2, 5] [%] | pest or weed control at 100 ppm [2, 6] [%] | pest or weed control at 121.5 g/ha [1, 3] [%] | pest or weed control at 121.5 g/ha [2, 5] [%] | pest or weed control at 121.5 g/ha [1, 4] [%] | pest or weed control at 121.5 g/ha [2, 6] [%]
1 | COc1ccnc(C(=O)N[C@H]2CCC[C@H](Cc3ccc(C)cc3)[C@@H](Oc3ccccc3)[C@H](C)OC2=O)c1OC(C)=O [Compound F79, 4-methoxy-2-(((3S,7R,8R,9S)-9-methyl-7-(4-methylbenzyl)-2-oxo-8-phenoxyoxonan-3-yl)carbamoyl)pyridin-3-yl acetate] | 96 to 100 | 80 to 100 | 80 to 100 | 80 to 100 | 80 to 100 | – | – | – | –
2 | COc1ccnc(C(=O)N[C@H]2CCC[C@H](Cc3ccc(F)cc3F)[C@@H](OC(=O)c3ccco3)[C@H](C)OC2=O)c1O [Compound F60] | 93 to 97 | 80 to 100 | 80 to 100 | 80 to 100 | 80 to 100 | 80 to 100 | 80 to 100 | – | –
3 | COc1ccnc(C(=O)N[C@H]2CCC[C@H](Cc3ccc(F)cc3F)[C@@H](OCC(C)C)[C@H](C)OC2=O)c1O [Compound F59] | 69 to 72 | 80 to 100 | 80 to 100 | 80 to 100 | 80 to 100 | 80 to 100 | 80 to 100 | 0 to 80 | –

Now from value to compound, other results behind:

Row | melting point [°C] | Structure (SMILES) | pest or weed control at 100 ppm [1, 3] [%] | pest or weed control at 100 ppm [1, 4] [%] | pest or weed control at 100 ppm [2, 5] [%] | pest or weed control at 100 ppm [2, 6] [%] | pest or weed control at 121.5 g/ha [1, 3] [%] | pest or weed control at 121.5 g/ha [2, 5] [%] | pest or weed control at 121.5 g/ha [1, 4] [%] | pest or weed control at 121.5 g/ha [2, 6] [%]
4 | 55 to 60 | COc1ccnc(C(=O)N[C@H]2CCC[C@H](Cc3ccc(C)cc3)[C@@H](OCC3CC3)[C@H](C)OC2=O)c1OCOC(C)=O [Compound F127] | 80 to 100 | 80 to 100 | 80 to 100 | 80 to 100 | – | – | – | –
5 | 50 to 55 | CCOCC(=O)OCOc1c(OC)ccnc1C(=O)N[C@H]1CCC[C@H](Cc2ccc(C)cc2)[C@@H](OCC2CC2)[C@H](C)OC1=O [Compound F180] | 80 to 100 | 80 to 100 | 80 to 100 | 80 to 100 | 80 to 100 | 80 to 100 | 80 to 100 | 0 to 80
